Measurements published in patent US20140128359A1, “N-Heterocyclic Substituent-Containing Antibiotic, Preparation and Use Thereof” (priority 2012, published 2014).
Read-outs that look alike come from different tables or passages of the source.

What was measured:
[1] = format: physicochemical; details: for content in aqueous injection solution: 37° C.
Source text: (§1) Compared to Compound II, Compound I has better stability in aqueous solution (see Table 2) and in the solid state (See Table 3). Thus Compound I can be stored without freezing or special treatment.

[2] = Muscle stimulation test on rabbits; format: in vivo, New Zealand rabbits
Source text: The inventors have conducted the muscle stimulation test of Compounds Ia and II on rabbits. The test is as follows. Eight New Zealand rabbits were divided into three groups. Two groups, containing three rabbits per group, were administrated with Compound Ia and Compound II, respectively. The third group, containing two rabbits, was used as a negative control group. The rabbits were intramuscularly injected with high concentrations of the compounds into the left quadriceps and with low concentration into the right quadriceps. The negative control group was injected with an equal concentration of sodium chloride into the quadriceps of both sides. Each quadriceps was administrated with 1.0 mL once a day for three consecutive days. One or two rabbits from each group were anatomized after 48 hours of the injection. The remaining rabbits were anatomized after the end of the two-week recovery period.

pH of aqueous solution = format: physicochemical
[3] = Solid state stability, 72 hours in storage at various temperatures; format: physicochemical
Source text: as §1

Pneumonia Chain Coccus [4] = experiment: In-vivo antibacterial activity (protection of rats); details: against Pneumonia Chain Coccus
Shigella = experiment: Vitro bacteriostasis, two-fold agar dilution method; format: cell-based
Method: (§2) Vitro bacteriostasis experiments of Compounds Ia, Ib, and Ic were performed using the two-fold agar dilution method.

Type B Chain Coccus = experiment: as above; format: cell-based
Method: as §2

Excrement Enterococcus [5] = experiment: as above; format: cell-based
Method: as §2

Type A Chain Coccus = experiment: as above; format: cell-based
Method: as §2

Moraxella Catarrhalis [6] = experiment: as above; format: cell-based
Method: as §2

Pneumonia Chain Coccus [7] = experiment: as above; format: cell-based
Method: as §2

Haemophilus Influenzae = experiment: as above; format: cell-based
Method: as §2

[8] = Acute toxicity tests on rats; format: in vivo; details: intravenous injection
[9] = format: in vivo
Method: The inventors conducted preliminary pharmacokinetic study of Compound Ia on Beagle dogs. The Beagle dogs were allowed to drink water freely but not to eat food for 16 hours before and 4 hours after the intravenous injection of 50 mg/kg.bw of the compound. Intravenous blood sampling took place at 0, 0.083, 0.17, 0.25, 0.5, 1, 1.5, 2, 3, 4, 6, 9, 12 hours, respectively, after the injection, each blood sample being 3 mL. Thereafter the dogs were given the drugs every other week and blood samples were taken according to the above manner. The blood samples were added to the centrifuge tubes containing heparin and thoroughly mixed by centrifuging at 4000 rpm for 10 minutes. The blood plasma was separated and an abstraction agent (methanol/ethyl acetate 3:2 V/V) was added to and mixed with it by centrifuging at 10000 rpm for 10 minutes. The top, clear liquid, 20 μL, was taken and analyzed by HPLC.

Moraxella Catarrhalis [10] = experiment: In-vivo antibacterial activity (protection of rats); details: against Moraxella Catarrhalis
Excrement Enterococcus [11] = experiment: as above; details: against Excrement Enterococcus
[12] = healthy Beagle dogs, single intravenous injection 50 mg/kg.bw

Row | Structure (SMILES) | content in aqueous injection solution ([1]; 0 hr) | content in aqueous injection solution ([1]; 0.2 hr) | content in aqueous injection solution ([1]; 1 hr) | content in aqueous injection solution ([1]; 2 hr) | content in aqueous injection solution ([1]; 3 hr) | content in aqueous injection solution ([1]; 4 hr) | pH (pH of aqueous solution; concentration not given) | content after 72 hours in storage ([3]; 10° C.) | content after 72 hours in storage ([3]; 40° C.) | content after 72 hours in storage ([3]; 60° C.) | content after 72 hours in storage ([3]; −5° C.) | MIC90 (Shigella) | MIC90 (Type B Chain Coccus) | MIC90 (Excrement Enterococcus [5]) | MIC90 (Type A Chain Coccus) | MIC90 (Moraxella Catarrhalis [6]) | MIC90 (Pneumonia Chain Coccus [7]) | MIC90 (Haemophilus Influenzae) | LD50 [8] | t1/2β [9, 12] | further results
1 | CC(C)N=C(NC(C)C)SCC(=O)NC1C(=O)N2C(C(=O)O)=C(CSc3nc(=O)c(=O)[nH]n3C)CSC12 (stereo not drawn) [Compound II, 7-(α-((N,N′-diisopropylamidino)thio)acetylamino)-3-(((1,2,5,6-tetrahydro-2-methyl-5,6-dioxo-1,2,4-triazin-3-yl)thio)methyl) cephalosporanic acid, reference compound] | 98.50% | 94.33% | 84.26% | 77.04% | 71.06% | 66.48% | 3.2 | 97.9% | 96.3% | 92.75% | 98.0% | – | – | – | – | – | – | – | – | – | stability (general statement) [1]: low stability; irritation (general statement) ([2]; rabbit, in vivo): irritates muscles and blood vessels; muscle irritation observed ([2]; rabbit, in vivo): various levels of intense irritation; pH value of saturated aqueous solution (pH of aqueous solution; saturated aqueous solution): 3.2
2 | CC(C)N=C(NC(C)C)SCC(=O)NC1C(=O)N2C(C(=O)[O-])=C(CSc3nc(=O)c(=O)[nH]n3C)CSC12.[Na+] (stereo not drawn) [Compound Ia, 7-(α-((N,N′-diisopropylamidino)thio)acetylamino)-3-(((1,2,5,6-tetrahydro-2-methyl-5,6-dioxo-1,2,4-triazin-3-yl)thio)methyl) cephalosporanic acid mono sodium salt] | 98.60% | 98.60% | 97.98% | 97.79% | 97.24% | 97.13% | 7.3 | 96.9% | 96.6% | 96.4% | 97.0% | 4 µg/mL | 0.0625 µg/mL | 8 µg/mL | 0.5 µg/mL | 1 µg/mL | 0.125 µg/mL | 0.5 µg/mL | 1747.6 mg/kg | 155 ± 2.4 min | protection for rats (Pneumonia Chain Coccus [4]): excellent protection; solubility in acetone (Solubility; acetone): not readily soluble; solubility in anhydrous ethanol (Solubility; anhydrous ethanol): not readily soluble; solubility in methanol (Solubility; methanol): readily soluble; solubility in water (Solubility; water): readily soluble; AUC [9, 12]: 108.29 ± 18.17 µg·h/mL; ClB [9, 12]: 7.83 ± 1.5 mL/min/kg; Cmax [9, 12]: 116.35 ± 12.06 µg/mL; V1 [9, 12]: 0.25 ± 0.07 L/kg; VB [9, 12]: 1.61 ± 0.30 L/kg; t1/2α [9, 12]: 37.8 ± 7.2 min; drug concentration after 12 hours of the administration ([9]; healthy Beagle dogs, single intravenous injection 50 mg/kg.bw, 12 hours): 0.39 ± 0.09 µg/mL; muscle irritation observed ([2]; rabbits, intramuscular into quadriceps, 1.0 mL once a day for three days, 48 hours and 14 days after last administration): slight irritation; protection for rats (Moraxella Catarrhalis [10]): excellent protection; protection for rats (Excrement Enterococcus [11]): excellent protection; pH (pH of aqueous solution; concentration 0.1 g/mL): 7.3
3 | CC(C)N=C(NC(C)C)SCC(=O)NC1C(=O)N2C(C(=O)[O-])=C(CSc3nc(=O)c(=O)[nH]n3C)CSC12.CC(C)N=C(NC(C)C)SCC(=O)NC1C(=O)N2C(C(=O)[O-])=C(CSc3nc(=O)c(=O)[nH]n3C)CSC12.[Na+].[Na+] (stereo not drawn) [Compound Ib, disodium 7-(α-((N,N′-diisopropylamidino)thio)acetylamino)-3-(((1,2,5,6-tetrahydro-2-methyl-5,6-dioxo-1,2,4-triazin-3-yl)thio)methyl) cephalosporanate] | 98.80% | 98.54% | 97.14% | 96.66% | 95.21% | 94.30% | – | – | – | – | – | 4 µg/mL | 0.0125 µg/mL | 4 µg/mL | 0.1 µg/mL | 0.5 µg/mL | 0.5 µg/mL | 0.5 µg/mL | – | – | pH (pH of aqueous solution; concentration 0.1 g/mL): 10.02
4 | CC(C)N=C(NC(C)C)SCC(=O)NC1C(=O)N2C(C(=O)[O-])=C(CSc3nc(=O)c(=O)[nH]n3C)CSC12.[K+] (stereo not drawn) [Compound Ic, 7-(α-((N,N′-diisopropylamidino)thio)acetylamino)-3-(((1,2,5,6-tetrahydro-2-methyl-5,6-dioxo-1,2,4-triazin-3-yl)thio)methyl) cephalosporanic acid monopotassium salt] | – | – | – | – | – | – | – | – | – | – | – | 4 µg/mL | 0.0156 µg/mL | 8 µg/mL | 0.1 µg/mL | 0.5 µg/mL | 0.5 µg/mL | 0.5 µg/mL | – | – | –
5 | CC(=O)OCC1=C(C(=O)O)N2C(=O)[C@@H](NC(=O)CSC(=NC(C)C)NC(C)C)[C@H]2SC1 [cefathiamidine, Cefathiamidine, reference compound] | – | – | – | – | – | – | – | – | – | – | – | – | – | – | – | – | – | – | 824.2 mg/kg | 39 ± 1.8 min | biological half-life in blood ([9]; Beagle dogs, preliminary pharmacokinetic study): 0.65 hours
